# Measured values published in ChEMBL document CHEMBL4385630, “The synthesis and evaluation of quinolinequinones as anti-mycobacterial agents” (2019).
# Activity calls are given as the source filed them. The rule behind the calls is not given here.
# Experiments:
# [1] = system: Mycobacterium tuberculosis; test: Antimycobacterial activity against Mycobacterium tuberculosis MC2 6230 assessed as reduction in cell viability incubated for 5 days by resazurin based method; format: functional; conditions: MC2 6230, 120 h
# [2] = Electrochemical behavior of the compound in acetonitrile assessed as redox potential E1 at 1 mM using Ag/Ag+ electrode by cyclic voltammetry
# [3] = Electrochemical behavior of the compound in acetonitrile assessed as redox potential E2 at 1 mM using Ag/Ag+ electrode by cyclic voltammetry
# [4] = Electrochemical behavior of the compound in acetonitrile/tolunene assessed as redox potential E2 at 1 mM using Ag/Ag+ electrode by cyclic voltammetry
# [5] = Electrochemical behavior of the compound in acetonitrile/tolunene assessed as redox potential E1 at 1 mM using Ag/Ag+ electrode by cyclic voltammetry
# [6] = system: Mycolicibacterium smegmatis MC2 155; test: Activation of NDH-2 in Mycobacterium smegmatis MC2 155 inverted membrane vesicles assessed as increase in oxygen consumption rate in presence of NADH by fluorespirometry
# [7] = system: Mycobacterium tuberculosis; test: Antimycobacterial activity against Mycobacterium tuberculosis incubated for 7 days by resazurin dye based assay; format: functional; conditions: 168 h
# [8] = system: Mycobacterium tuberculosis; test: Antimycobacterial activity against Mycobacterium tuberculosis H37Rv incubated fro 96 hrs; format: functional
Structure (SMILES),MIC [1] [µM],Activity [2] [V],Activity [3] [V],Activity [4] [V],Activity [5] [V],Activity [6],MIC [7] [µM],MIC [8] [µM]
NNC(=O)c1ccncc1 [ISONIAZID],0.2,–,–,–,–,–,–,–
O=C1C(Nc2ccccc2)=C(Cl)C(=O)c2ncccc21,> 512,-0.46,-1.06,–,–,–,–,–
CCCCCCCCCCCCCCc1ccc(NC2=C(Cl)C(=O)c3ncccc3C2=O)cc1,> 512,–,–,-1.1,-0.78,–,–,–
CCCCCCCCNC1=C(Cl)C(=O)c2nc(C)ccc2C1=O,128,-0.72,-1.27,–,–,–,–,–
O=C1C(Cl)=C(NCCc2ccccc2)C(=O)c2ncccc21,16,-0.64,-1.21,–,–,–,–,–
CCCCCCCCCCCCCCc1ccc(NC2=C(Cl)C(=O)c3cccnc3C2=O)cc1,> 512,–,–,-1,-0.44,–,–,–
O=C1C(NCCc2ccccc2)=C(Cl)C(=O)c2ncccc21,128,-0.6,-1.15,–,–,–,–,–
Cc1ccc2c(n1)C(=O)C(N(C)C)=C(Cl)C2=O,> 512,-0.6,-1.13,–,–,–,–,–
COc1ccc(CNC2=C(Cl)C(=O)c3ccc(C)nc3C2=O)cc1,16,-0.52,-1.1,–,–,–,–,–
Cc1ccc2c(n1)C(=O)C(Cl)=C(NCCc1ccccc1)C2=O,128,-0.73,-1.3,–,–,–,–,–
COc1ccc(CNC2=C(Cl)C(=O)c3ncccc3C2=O)cc1,32,-0.61,-1.18,–,–,–,–,–
Cc1ccc2c(n1)C(=O)C(Cl)=C(Nc1ccccc1)C2=O,512,-0.47,-1.05,–,–,–,–,–
CC1=CC(=O)c2ccccc2C1=O,–,-0.7,-1.27,–,–,–,–,–
CCCNC1=C(Cl)C(=O)c2ccc(C)nc2C1=O,128,-0.56,-0.97,–,–,–,–,–
C#CCNC1=C(Cl)C(=O)c2cccnc2C1=O,128,-0.49,-1.07,–,–,–,–,–
C#CCNC1=C(Cl)C(=O)c2ncccc2C1=O,8,-0.5,-1.1,–,–,Active,–,–
C#CCNC1=C(Cl)C(=O)c2ccc(C)nc2C1=O,256,-0.51,-1.1,–,–,–,–,–
COc1ccc(CNC2=C(Cl)C(=O)c3cccnc3C2=O)cc1,16,-0.63,-1.24,–,–,–,–,–

Structure (SMILES),MIC [1] [µM],Activity [2] [V],Activity [3] [V],Activity [4] [V],Activity [5] [V],Activity [6],MIC [7] [µM],MIC [8] [µM]
CCCNC1=C(Cl)C(=O)c2ncccc2C1=O,128,-0.6,-1.16,–,–,–,–,–
CCCCCCCCNC1=C(Cl)C(=O)c2ncccc2C1=O,16,-0.67,-1.26,–,–,–,–,–
Cc1ccc2c(n1)C(=O)C(Cl)=C(N1CCCCC1)C2=O,128,-0.57,-1.13,–,–,–,–,–
O=C1C(NCCCl)=C(Cl)C(=O)c2ncccc21,–,–,–,–,–,–,8,–
CCCNC1=C(Cl)C(=O)c2nc(C)ccc2C1=O,512,-0.6,-1.17,–,–,–,–,–
Cc1ccc2c(n1)C(=O)C(Cl)=C(NC(C)(C)C)C2=O,256,-0.69,-1.25,–,–,–,–,–
CCCCCCCc1ccc(NC2=C(Cl)C(=O)c3ncccc3C2=O)cc1,64,-0.58,-1.15,–,–,–,–,–
CCCCCCCc1ccc(NC2=C(Cl)C(=O)c3cccnc3C2=O)cc1,32,-0.57,-1.08,–,–,–,–,–
O=C1C(NC2CCCCCCC2)=CC(=O)c2ncccc21,–,–,–,–,–,–,–,3.5
Cc1ccc2c(n1)C(=O)C(Cl)=C(N(C)C)C2=O,512,-0.62,-1.11,–,–,–,–,–
Cc1ccc2c(n1)C(=O)C(N1CCCCC1)=C(Cl)C2=O,256,-0.61,-1.17,–,–,–,–,–
CCCCCCCCNC1=C(Cl)C(=O)c2cccnc2C1=O,64,-0.68,-1.27,–,–,–,–,–
CCCNC1=C(Cl)C(=O)c2cccnc2C1=O,128,-0.59,-1.16,–,–,–,–,–
C#CCNC1=C(Cl)C(=O)c2nc(C)ccc2C1=O,64,-0.55,-1.05,–,–,–,–,–
Cc1ccc2c(n1)C(=O)C(NCCc1ccccc1)=C(Cl)C2=O,16,-0.7,-1.3,–,–,–,–,–
O=C1C(Cl)=C(Nc2ccccc2)C(=O)c2ncccc21,512,-0.42,-1,–,–,–,–,–
Cc1ccc2c(n1)C(=O)C(NC(C)(C)C)=C(Cl)C2=O,> 512,-0.59,-1.1,–,–,–,–,–
Cc1ccc2c(n1)C(=O)C(Nc1ccccc1)=C(Cl)C2=O,256,-0.44,-0.9,–,–,–,–,–
